Values of other authors, collected in patent US20200281890A1, “COMPOSITIONS COMPRISING CANNABIDIOL, TETRAHYDROCANNABINOL, TERPENES, AND […] USE THEREOF IN THE TREATMENT OF INSOMNIA” (CANOPY HEALTH INNOVATIONS, priority 2017, published 2020).

What was measured:
[1] = target: CB2 receptor (Homo sapiens, UniProt P34972)
[2] = target: CB1 receptor (Homo sapiens, UniProt P21554)
[3] = target: T1, 5-HT1A receptor (Homo sapiens, UniProt P08908)
T1 sequence (P08908 1-422): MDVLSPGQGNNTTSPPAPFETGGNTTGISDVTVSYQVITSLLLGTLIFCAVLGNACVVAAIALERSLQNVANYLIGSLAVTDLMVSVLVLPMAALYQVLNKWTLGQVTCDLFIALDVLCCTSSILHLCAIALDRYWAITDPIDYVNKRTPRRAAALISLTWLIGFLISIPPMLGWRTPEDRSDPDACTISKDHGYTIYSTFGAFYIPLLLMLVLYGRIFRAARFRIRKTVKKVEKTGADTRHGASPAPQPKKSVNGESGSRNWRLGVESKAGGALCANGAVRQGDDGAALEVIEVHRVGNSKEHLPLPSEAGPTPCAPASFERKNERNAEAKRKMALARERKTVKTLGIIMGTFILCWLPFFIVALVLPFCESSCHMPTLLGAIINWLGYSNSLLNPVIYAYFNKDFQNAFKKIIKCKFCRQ

[4] = test system: a2-adrenergic receptor
[5] = test system: mice, rats, gerbils and non-human primates
[6] = test system: mouse; conditions: up to 80 mg/kg

Sequence of CB2 receptor (P34972 whole entry): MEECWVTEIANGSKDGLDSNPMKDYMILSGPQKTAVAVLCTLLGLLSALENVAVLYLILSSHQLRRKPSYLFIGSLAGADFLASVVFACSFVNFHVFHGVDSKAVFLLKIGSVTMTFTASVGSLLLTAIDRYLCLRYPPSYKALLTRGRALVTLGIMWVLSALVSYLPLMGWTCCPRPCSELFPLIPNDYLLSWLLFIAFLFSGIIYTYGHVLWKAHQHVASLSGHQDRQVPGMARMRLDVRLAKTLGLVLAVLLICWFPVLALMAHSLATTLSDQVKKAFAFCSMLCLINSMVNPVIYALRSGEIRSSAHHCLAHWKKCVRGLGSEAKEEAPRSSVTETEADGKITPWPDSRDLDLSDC
Sequence of CB1 receptor (P21554 whole entry): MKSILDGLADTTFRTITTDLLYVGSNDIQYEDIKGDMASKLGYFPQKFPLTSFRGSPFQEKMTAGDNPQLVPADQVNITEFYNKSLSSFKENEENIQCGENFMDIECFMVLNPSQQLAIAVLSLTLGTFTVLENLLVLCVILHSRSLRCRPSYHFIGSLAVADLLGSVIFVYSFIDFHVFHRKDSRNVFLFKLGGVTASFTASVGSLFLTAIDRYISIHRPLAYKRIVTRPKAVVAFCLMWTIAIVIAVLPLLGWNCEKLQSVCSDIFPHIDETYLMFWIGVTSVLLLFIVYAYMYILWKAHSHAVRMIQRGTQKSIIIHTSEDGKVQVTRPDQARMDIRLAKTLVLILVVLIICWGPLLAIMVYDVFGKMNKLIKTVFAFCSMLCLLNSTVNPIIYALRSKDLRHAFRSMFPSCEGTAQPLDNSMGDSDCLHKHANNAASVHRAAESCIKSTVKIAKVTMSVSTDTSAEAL

| SMILES | affinity to CB2 receptors relative to CB1 ([1]; lower affinities in comparison to THC) | function at the CB1 receptors [2] | 5-HT1A receptor affinity and function [3] | CB2 receptor binding and function [1] | CB1 receptor affinity and function [2] | a2-adrenergic receptor affinity and function [4] | THC-like activity [5] | effect in mouse tetrad test (locomotor suppression, catalepsy, hypothermia and analgesia) [6] |
| --- | --- | --- | --- | --- | --- | --- | --- | --- |
| CCCCCc1cc(O)c2c(c1)OC(C)(C)c1ccc(C)cc1-2 [CBN, cannabinol] | higher affinity to CB2 receptors | partial agonist | – | – | – | – | – | – |
| CCCCCc1cc(O)c(C/C=C(\C)CCC=C(C)C)c(O)c1 [CBG, cannabigerol] | – | – | moderate affinity 5-HT1A receptor antagonist | antagonist | low affinity CB1 receptor antagonist | high affinity a2-adrenergic receptor agonist | does not trigger THC-like activity | without effect |
